Assay results reported in patent US9944660B2, “Tricyclic benzoxaboroles as antibacterial agents” (Daiichi Sankyo Company, Limited, priority 2014, dated 2018).
pIC50: −log10 of the molar value. Where two headings read alike, the source gives them in different places.

Columns and labels:
E. coli LRS = target: T1, E. coli LRS (Escherichia coli, UniProt P07813); experiment: Leucine tRNA synthetase (LRS) enzyme inhibition assay; format: biochemical
T1 construct: made in house
Experimental: (§1) (Test Example 1) Leucine tRNA Synthetase (LRS) Enzyme Inhibition Assay [IC50]
(§2) E. coli and P. aeruginosa LRS enzymes were cloned, expressed and purified in-house. The IC50 values were determined by using following assay protocol.
(§3) Test compounds were diluted in milli-Q water. 5 μL (microliter) of test compound dilution was mixed with 20 μL of reaction mixture consisting of 100 millimolar Tris (Trizma base from Sigma), 120 millimolar potassium chloride (Sigma), […] magnesium chloride (Sigma), 50 millimolar dithiothreitol, 50 mg/mL E. coli tRNA (Roche), 150 micromolar leucine (Sigma), 0.5 microcurie of ^3H Leucine (Amersham) and 20 μL of appropriate dilution of LRS enzyme, incubate in shaker at about 30° C. for 20 minutes. The reaction was started by adding 5 μL of 40 millimolar ATP (Sigma) and incubated on shaker at the same temperature further for 20 minutes. The reaction was quenched with 150 μL ice cold trichloroacetic acid (10%). The content of each well was transferred to 96 well GF/C plates (from Pall), and washed with 150 μL of trichloroacetic acid (5%) using vacuum manifold (from Pall). Plates were dried and read using Microbeta Wallac liquid scintillation counters after adding 100 μL of scintillation cocktail (Perkin Elmer's OptiPhase ‘SuperMix’) to each well. IC50 was calculated with respect to enzyme control after subtracting background (No enzyme control) using Graph Pad Prism software.

P. aeruginosa LRS = target: T2, P. aeruginosa LRS (Pseudomonas aeruginosa, UniProt Q9HX33); experiment: as above; format: biochemical; conditions: 3H leucine incorporation
T2 construct: made in house
T2 sequence (Q9HX33 whole entry): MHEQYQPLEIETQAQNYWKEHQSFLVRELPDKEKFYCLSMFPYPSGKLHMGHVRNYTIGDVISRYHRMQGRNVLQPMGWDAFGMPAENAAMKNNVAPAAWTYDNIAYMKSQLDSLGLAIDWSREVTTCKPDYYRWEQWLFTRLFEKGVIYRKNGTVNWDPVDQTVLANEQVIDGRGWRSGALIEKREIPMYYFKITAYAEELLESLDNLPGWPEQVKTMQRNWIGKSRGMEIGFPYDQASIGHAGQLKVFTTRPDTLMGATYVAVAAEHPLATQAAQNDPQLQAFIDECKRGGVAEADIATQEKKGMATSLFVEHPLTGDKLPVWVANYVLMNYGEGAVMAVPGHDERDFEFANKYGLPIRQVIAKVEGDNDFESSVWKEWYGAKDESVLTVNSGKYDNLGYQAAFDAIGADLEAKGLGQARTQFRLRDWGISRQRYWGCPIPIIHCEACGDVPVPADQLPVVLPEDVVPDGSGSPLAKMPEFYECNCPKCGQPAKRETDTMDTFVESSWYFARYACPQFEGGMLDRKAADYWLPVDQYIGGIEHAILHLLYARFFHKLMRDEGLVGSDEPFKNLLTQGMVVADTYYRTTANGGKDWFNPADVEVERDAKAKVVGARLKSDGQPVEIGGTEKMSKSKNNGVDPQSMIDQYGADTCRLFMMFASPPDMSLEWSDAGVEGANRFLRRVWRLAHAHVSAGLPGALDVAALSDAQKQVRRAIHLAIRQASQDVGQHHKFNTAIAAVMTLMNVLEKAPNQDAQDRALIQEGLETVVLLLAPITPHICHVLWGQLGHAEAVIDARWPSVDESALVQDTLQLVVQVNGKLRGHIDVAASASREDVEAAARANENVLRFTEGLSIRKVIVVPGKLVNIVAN
Experimental: as §1, §2, §3

E. coli ATCC 25922 [1] = experiment: MICs in Muller Hinton Broth and pooled human urine; format: cell-based; conditions: Escherichia coli, ATCC25922
Experimental: (§4) In short, bacterial cultures were streaked on Muller Hinton Agar plates and incubated at 35±2° C. for about 18 to 20 hours. Following day colony suspension was prepared in saline and adjusted to 0.5 McFarland using Densitometer. This culture was further diluted 100 fold in Muller Hinton Broth or M9 minimal media or pooled human urine and used for MIC determination. The test compounds were prepared in dimthylesulfoxide (DMSO) at concentration of 1 mg/mL, and diluted to 32 μg/mL in respective media. Further two fold serial dilution were prepared in 96 well microtiter plates. 50 μL of diluted cultures were added to all wells and incubated at 35±2° C. for about 16 to 20 hours.
(Test Example 4) MICs in Human Urine Against E. coli and K. pneumonia
Many antibacterial compounds like fluroquinolones loose activity in human urine at acidic pH (acidic urine promotes rigorous bacterial growth). MICs were performed using CLSI guidelines (2011) against E. coli 25922 in Muller Hinton Broth (MHB) and pooled human urine.

[2] = system: P. aeruginosa PAO1 (parent, MexAB del, MexAB over expression); experiment: MICs against Pseudomonas efflux pump mutants; format: cell-based
Experimental: as §4
(Test Example 5) MICs Against Pseudomonas Efflux Pump Mutants
Multidrug-resistant (MDR) P. aeruginosa isolated from nosocomial infections in intensive care units (ICUs) are often related to altered regulation of the specific efflux pumps and porins in P. aeruginosa strains. Tested compounds that show similar activity against efflux pump overproducers and lab strains can be predictive of activity in nosocomial patients infected with MDR strains. To identify such compounds we have determined MICs against P. aeruginosa PAO1 against Efflux deleted and overproducer strains.

E. coli ATCC 25922 [3] = experiment: Bacterial susceptibility testing (MIC, CLSI microdilution); format: cell-based; conditions: Escherichia coli, ATCC25922
Experimental: (§5) (Test Example 2) Method of Testing Susceptibility of Bacterial [MICs]
(§6) Minimum inhibitory concentration (MIC) were determined as recommended by the Clinical and Laboratory Standards Institute (CLSI) in 2010 (M100-520), in 2011 (M100-521), 2012 (M100-522) and in 2013 (M100-523) with minor modifications.
as §4

K. pneumoniae ATCC 13883 = experiment: as above; format: cell-based; conditions: Klebsiella pneumoniae, ATCC13883
Experimental: as §5, §6, §4

P. aeruginosa = experiment: as above; format: cell-based; conditions: Pseudomonas aeruginosa, strain not stated, read-out: MIC against P. aeruginosa
Experimental: as §5, §6, §4

[4] = Muller Hinton Broth, read-out: E. coli ATCC 25922 MIC (μg/mL) MHB
[5] = pooled human urine pH 5.5, read-out: E. coli ATCC 25922 MIC (μg/mL) Urine pH 5.5
[6] = PAO1, read-out: MIC (μg/mL) P. aeruginosa PAO1 MexAB del
[7] = PAO1, read-out: MIC (μg/mL) P. aeruginosa PAO1 MexAB over expression
[8] = PAO1, read-out: MIC (μg/mL) P. aeruginosa PAO1 Parent

T1 sequence (P07813 whole entry): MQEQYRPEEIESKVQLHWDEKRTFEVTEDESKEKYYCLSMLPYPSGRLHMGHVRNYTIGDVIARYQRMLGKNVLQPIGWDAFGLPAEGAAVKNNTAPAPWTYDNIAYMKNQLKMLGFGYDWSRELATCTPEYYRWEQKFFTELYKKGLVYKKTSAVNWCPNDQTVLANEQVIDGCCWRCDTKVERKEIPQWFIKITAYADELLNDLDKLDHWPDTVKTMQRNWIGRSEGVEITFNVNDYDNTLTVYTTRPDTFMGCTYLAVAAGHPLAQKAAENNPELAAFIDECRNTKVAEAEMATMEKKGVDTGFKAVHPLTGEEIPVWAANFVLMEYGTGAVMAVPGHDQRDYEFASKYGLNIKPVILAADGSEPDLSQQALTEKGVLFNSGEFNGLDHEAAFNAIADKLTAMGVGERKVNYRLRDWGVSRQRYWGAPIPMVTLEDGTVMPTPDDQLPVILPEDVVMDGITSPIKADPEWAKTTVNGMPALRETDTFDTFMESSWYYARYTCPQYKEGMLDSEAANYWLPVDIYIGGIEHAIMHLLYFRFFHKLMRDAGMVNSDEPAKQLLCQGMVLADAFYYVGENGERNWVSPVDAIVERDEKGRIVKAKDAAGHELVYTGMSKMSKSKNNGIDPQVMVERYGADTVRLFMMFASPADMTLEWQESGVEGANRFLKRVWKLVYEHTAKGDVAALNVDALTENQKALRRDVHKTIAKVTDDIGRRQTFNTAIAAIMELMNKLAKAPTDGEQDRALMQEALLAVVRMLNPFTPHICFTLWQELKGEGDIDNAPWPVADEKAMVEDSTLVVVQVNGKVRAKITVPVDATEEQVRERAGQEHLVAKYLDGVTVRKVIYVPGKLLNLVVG

| SMILES | pIC50 (E. coli LRS) | IC50 (P. aeruginosa LRS) [µM] | MIC (E. coli ATCC 25922 [1]; [4]) [µg/mL] | MIC (E. coli ATCC 25922 [1]; [5]) [µg/mL] | MIC [2, 6] [µg/mL] | MIC [2, 7] [µg/mL] | MIC [2, 8] [µg/mL] | MIC (E. coli ATCC 25922 [3]) [µg/mL] | MIC (K. pneumoniae ATCC 13883) [µg/mL] | MIC (P. aeruginosa) [µg/mL] |
| --- | --- | --- | --- | --- | --- | --- | --- | --- | --- | --- |
| Cl.NCC1OB(O)c2c1ccc1c2OCO1 (stereo not shown) [Compound 9, 3-(aminomethyl)[1,3]dioxolo[4,5-g][2,1]benzoxaborol-1(3H)-ol; hydrochloride] | 5.77 | 2.7 | 8 | 8 | 2 | 4 | 2 | 2 | 2 | 2 |
| Cl.NCC1OB(O)c2c1ccc1c2CCC1 (stereo not shown) [Compound 3, 3-(aminomethyl)-3,6,7,8-tetrahydro-1H-indeno[4,5-c][1,2]oxaborol-1-ol hydrochloride] | 5.60 | 2.2 |  |  |  |  |  | 1 | 1 |  |
| Cl.NC[C@H]1OB(O)c2ccc3c(c21)OCO3 (single isomer, unassigned) [Compound 6, hydrochloride] | > 6.92 | < 0.12 |  |  |  |  |  |  |  |  |
| Cl.NCC1OB(O)c2ccc3c(c21)OCCO3 (stereo not shown) [Compound 7, 9-(aminomethyl)-2,3-dihydro[1,2]oxaborolo[4,3-f][1,4]benzodioxin-7(9H)-ol hydrochloride] | 6.10 | 0.6 |  |  |  |  |  | 8 | 16 |  |
| Cl.NCC1OB(O)c2cc3c(cc21)OCC3 (stereo not shown) [Compound 12, 3-(aminomethyl)-6,7-dihydrofuro[2,3-f][2,1]benzoxaborol-1(3H)-ol hydrochloride] | 5.55 | > 10 |  |  |  |  |  | 8 | 16 |  |
| Cl.NCC1OB(O)c2cc3c(cc21)OCCO3 (stereo not shown) [Compound 2, 3-(aminomethyl)-6,7-dihydro[1,2]oxaborolo[3,4-g][1,4]benzodioxin-1(3H)-ol hydrochloride] | 5.47 | > 10 |  |  |  |  |  | 4 | 8 |  |
| Cl.NCC1OB(O)c2cc3c(cc21)CCO3 (stereo not shown) [Compound 11, 3-(aminomethyl)-5,6-dihydrofuro[3,2-f][2,1]benzoxaborol-1(3H)-ol hydrochloride] | 5.54 | > 10 |  |  |  |  |  | 4 | 4 |  |
| Cl.NCC1OB(O)c2cc3c(cc21)OCO3 (stereo not shown) [Compound 1, 3-(aminomethyl)[1,3]dioxolo[4,5-f][2,1]benzoxaborol-1(3H)-ol hydrochloride] | 5.85 | > 10 |  |  |  |  |  | 4 | 4 |  |
| Cl.NCC1OB(O)c2c1ccc1c2OCCO1 (stereo not shown) [Compound 8, 3-(aminomethyl)-7,8-dihydro[1,2]oxaborolo[3,4-f][1,4]benzodioxin-1(3H)-ol hydrochloride] | 5.68 | 3.2 | 8 | 16 | 4 | 4 | 2 | 4 | 4 | 4 |
| Cl.NC[C@H]1OB(O)c2c1ccc1c2OCO1 (single isomer, unassigned) [Compound 10, hydrochloride] | 6.42 | 0.62 |  |  |  |  |  |  |  |  |
| Cl.NCC1OB(O)c2c1ccc1c2CCCC1 (stereo not shown) [Compound 4, 3-(Aminomethyl)-6,7,8,9-tetrahydronaphtho[1,2-c][1,2]oxaborol-1(3H)-ol hydrochloride] | 5.35 | 9.5 |  |  |  |  |  | 8 | 16 |  |
